Measured values taken from US6372501B1, “Glucose responsive β-cell line” (Aberdeen University, priority 1997, dated 2002).
Entries after “also recorded” stand apart in the source; their conditions may differ. Where two headings read alike, the source gives them in different places.

Key:
[1] = system: NES 2Y β-cells; experiment: Ca2+ microfluorimetry (fura-2) in NES 2Y β-cells; assay type: cell-based, human; settings: KCl 40 mM, tolbutamide 0.2 mM, glucose 20 mM
Description: (§1) Ca^2+ microfluorimetry experiments were performed with fura-2-loaded cells and intact islets as described previously.

[2] = system: NISK 9 β-cells; experiment: Ca2+ microfluorimetry (fura-2) in NISK 9 β-cells; assay type: cell-based, human; settings: for effect on cytosolic Ca2+ ([Ca2+]i): glucose n=8, n=22, KCl 40 mM n=22; for Δ[Ca2+]i, rise in the cytosolic concentration: average, tolbutamide n=22, efaroxan n=12
Description: as §1

[3] = system: NES 2Y β-cells; experiment: Insulin release (radioimmunoassay) from NES 2Y β-cells; assay type: cell-based, human; settings: 40 mM KCl, 0.2 mM tolbutamide, glucose
Description: (§2) Insulin was measured by radioimmunoassay using an anti-human insulin antibody (Linco, UK) and ^125I-human insulin, as previously described.

[4] = system: NISK 9 β-cells; experiment: Insulin release (radioimmunoassay) from NISK 9 β-cells; assay type: cell-based, human; settings: glucose 0.5-16 mM, KCl 40 mM, tolbutamide 0.2 mM
Description: NISK 9 cells (NES 2Y cells stably transfected with IUF1, Sur1 and Kir 6.2) were preincubated for 180 minutes in media containing 0.5 mM glucose. The media was then replaced with that containing the indicated concentrations of glucose, and the media samples assayed for insulin by radioimmunoassay after a further 60 minutes incubation. The data are presentative of two experiments, and show the mean +/− standard deviation of 6 separate determinations. The NISK9 cell line is shown to secrete insulin in response to changes in glucose in the physiological concentration range.
as §2

[5] = system: voltage-gated Na+ channels; assay type: cell-based, human
[6] = system: voltage-gated Na+ channels; assay type: cell-based, human; remark: listed apart in the source
[7] = system: voltage-gated Ca2+ channels; assay type: cell-based, human
[8] = system: voltage-gated Ca2+ channels; assay type: cell-based, human; remark: listed apart in the source
[9] = molecular target: T1, KATP channels (Homo sapiens, UniProt Q09428+Q14654); experiment: Patch-clamp recording of KATP channels in control human β-cells; assay type: cell-based; settings: cell attached configuration, diazoxide 500 μM, tolbutamide 200 μM
T1 construct: primary cultured human islet cells (control); endogenous in cells; host or cells: primary cultured human islet beta-cells
Source text: (In the record shown, the maximum number of coincident open ion channel events is increased from 3 to 30). Under the same experimental conditions none of these agents had any action on ion channel events in the NES 2Y β-cells. Similar data were obtained in 4 (panel A) and 18 (panel B) other control experiments, and in a total of N=10 (panel A) and n=10 (panel B) NES 2Y β-cells experiments. Note that upward deflections represent outward current events, and that the broken lines indicate the zero current level which corresponds to closure of all K^+ channels. The same ionic gradients were used for each of the experimental protocols described, and all data are plotted to the same scales in each panel.
(§3) All data were obtained from either primary cultured human islet cells (control) or from NES 2Y β-cells(transfected and untransfected) by patch-clamp techniques.
(§4) Standard KCl- and NaCl-rich solutions were used in all electophysiology recordings to provide quasi-physiological cationic gradients. Procedures used for data collection and analysis were described previously.

[10] = system: KATP channels; experiment: Patch-clamp recording of KATP channels in NES 2Y β-cells; assay type: cell-based, human; settings: intact cells (diazoxide 0.5 mM) or cell-free patches (cocktail)
[11] = system: recombinant KATP channels; experiment: Patch-clamp recording of recombinant KATP channels in NISK 9 β-cells; assay type: cell-based, human; settings: for effect on K+ channel in inside-out patch: NISK 9 β-cell, same inside-out patch, ATP 500 μM, diazoxide 500 μM in the presence of ATP, tolbutamide 250 μM, efaroxan 200 μM; for effect on recombinant KATP channels: NISK 9 β-cells, cell attached (n=4) and inside-out patch (n=5); for effect of nucleotides on recombinant KATP channels: ADP in the presence of inhibitory concentration of ATP
Description: In panel A, all data come from the same inside-out patch recording. […] When recorded using symmetrical 140 mM KCl-rich solutions on either side of the cell membrane the channel has an inwardly-retifying relationship, with an estimated inward current conductance of approximately 70 pS. See also claim 11 hereinafter.
Panels A and B were obtained under the same conditions as illustrated in FIG. 9. […] In panel B, tolbutamide is shown to inhibit diazoxide-activated KATP channels in an inside-out patch; note that when this configuration is used, ATP must be added to the inside face of the cell membrane to facilitate diazoxide-induced K^+ channel activation. Mean data from several experiments are also illustrated in panels A and B. See also claim 11 hereinafter.
All data comes from the same membrane recording: an inside-out patch record obtained from a NISK 9 β-cell. […] Closure of KATP channels was also associated with a rise in the cytosolic concentration ([Ca^2+]1), not shown. Thus, the Δ[Ca^2+]1 for tolbutamide was found, on average to be 158+/−24 nM (n=22), and for efaroxan 195+/−40 nM (n=12). See also claim 11 hereinafter.
as §3, §4

[12] = system: untransfected cells; settings: 800 μg/ml G418 (data not shown)

T1 sequence (Q09428 whole entry): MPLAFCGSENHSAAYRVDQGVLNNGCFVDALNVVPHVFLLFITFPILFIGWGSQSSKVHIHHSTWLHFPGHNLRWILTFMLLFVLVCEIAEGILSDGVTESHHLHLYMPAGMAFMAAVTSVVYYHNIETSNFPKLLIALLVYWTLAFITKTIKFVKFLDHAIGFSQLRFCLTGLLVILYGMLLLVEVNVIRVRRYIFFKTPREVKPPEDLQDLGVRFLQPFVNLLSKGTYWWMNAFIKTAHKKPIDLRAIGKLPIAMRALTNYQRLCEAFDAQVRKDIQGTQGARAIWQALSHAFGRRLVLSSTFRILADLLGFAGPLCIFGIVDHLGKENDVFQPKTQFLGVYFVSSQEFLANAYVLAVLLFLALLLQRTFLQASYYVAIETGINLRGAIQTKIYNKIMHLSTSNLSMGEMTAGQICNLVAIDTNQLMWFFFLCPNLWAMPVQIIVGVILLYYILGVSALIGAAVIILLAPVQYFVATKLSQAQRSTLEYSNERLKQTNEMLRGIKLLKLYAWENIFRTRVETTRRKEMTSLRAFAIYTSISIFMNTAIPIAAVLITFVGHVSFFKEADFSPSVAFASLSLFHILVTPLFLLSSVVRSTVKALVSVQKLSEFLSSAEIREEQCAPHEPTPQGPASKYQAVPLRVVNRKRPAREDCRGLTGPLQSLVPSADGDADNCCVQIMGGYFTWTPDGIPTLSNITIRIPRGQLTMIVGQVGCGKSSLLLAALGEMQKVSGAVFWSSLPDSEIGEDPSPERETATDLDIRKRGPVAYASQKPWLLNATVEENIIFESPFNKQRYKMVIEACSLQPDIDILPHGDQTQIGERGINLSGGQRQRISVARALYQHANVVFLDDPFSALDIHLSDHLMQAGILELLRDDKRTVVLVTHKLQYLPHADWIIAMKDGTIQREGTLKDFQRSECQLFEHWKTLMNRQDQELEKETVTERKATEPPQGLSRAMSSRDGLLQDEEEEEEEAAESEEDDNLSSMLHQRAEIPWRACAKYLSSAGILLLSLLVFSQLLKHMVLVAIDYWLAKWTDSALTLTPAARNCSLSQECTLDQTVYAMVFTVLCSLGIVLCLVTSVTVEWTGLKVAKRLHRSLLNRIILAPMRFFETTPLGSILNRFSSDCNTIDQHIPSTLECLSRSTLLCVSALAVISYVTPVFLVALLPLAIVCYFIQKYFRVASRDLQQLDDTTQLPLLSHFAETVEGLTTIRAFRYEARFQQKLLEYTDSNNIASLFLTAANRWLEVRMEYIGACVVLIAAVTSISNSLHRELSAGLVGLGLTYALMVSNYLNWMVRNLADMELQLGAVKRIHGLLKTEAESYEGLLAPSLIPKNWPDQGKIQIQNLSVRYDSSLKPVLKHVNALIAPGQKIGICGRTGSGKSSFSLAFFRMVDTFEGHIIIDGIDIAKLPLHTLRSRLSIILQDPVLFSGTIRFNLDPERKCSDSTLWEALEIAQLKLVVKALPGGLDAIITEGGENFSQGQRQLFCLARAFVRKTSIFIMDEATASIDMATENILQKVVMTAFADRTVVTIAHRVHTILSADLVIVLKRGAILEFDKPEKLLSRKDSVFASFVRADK
T1 sequence (Q14654 whole entry): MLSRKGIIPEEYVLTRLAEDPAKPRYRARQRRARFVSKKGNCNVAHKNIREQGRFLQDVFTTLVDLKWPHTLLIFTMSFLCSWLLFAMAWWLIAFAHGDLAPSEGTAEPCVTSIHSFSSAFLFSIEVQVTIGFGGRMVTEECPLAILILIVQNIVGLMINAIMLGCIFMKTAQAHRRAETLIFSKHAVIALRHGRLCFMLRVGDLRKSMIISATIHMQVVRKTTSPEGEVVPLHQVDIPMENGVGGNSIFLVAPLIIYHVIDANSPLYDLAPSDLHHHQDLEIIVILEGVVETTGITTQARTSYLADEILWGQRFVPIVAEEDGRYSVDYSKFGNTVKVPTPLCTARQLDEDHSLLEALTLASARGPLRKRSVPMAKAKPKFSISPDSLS

`[Cl-].[K+]` [KCl] was tested, and the “effect on cytosolic Ca2+ ([Ca2+]i)” value [1] was “no elevation of [Ca^2+]i”, the “effect on cytosolic Ca2+ ([Ca2+]i)” value [2] was “raise [Ca^2+]i” and the insulin release [3] was “fail to release insulin”. For the same compound, the insulin secretion [4] was “regulated insulin secretion”.
With `NC1=N[C@H](O)[C@H]2[C@H]3O[C@]4(O)O[C@@H]([C@@H](O)[C@@]2(N1)[C@@H]4O)[C@]3(O)CO` [tetrodotoxin] the “effect on voltage-gated currents” value [5] was “inhibition” and the “effect on voltage-gated currents” value [6] was “inhibition”.
With `COC(=O)C1=C(C)NC(C)=C([N+](=O)[O-])C1c1ccccc1C(F)(F)F` (racemic) [(+/−) BAY K-8644] the “effect on Ttx-insensitive currents” value [7] was “activation” and the “effect on Ttx-insensitive currents” value [8] was “activation”.
With `CC1=NS(=O)(=O)c2cc(Cl)ccc2N1` [diazoxide] the “effect on spontaneously open KATP channels” value [9] was “activated”, the “effect on KATP channel activity / ion channel events” value [10] was “no response” and the “effect on K+ channel in inside-out patch” value [11] was “activation”. For the same compound, the “effect on recombinant KATP channels” value [11] was “activated” and the “effect on the glucose-induced rise in [Ca2+]i” value ([2]; n=5) was “inhibited”.
With `CCCCNC(=O)NS(=O)(=O)c1ccc(C)cc1` [tolbutamide] the “effect on spontaneously open KATP channels” value [9] was “inhibited”, the “effect on K+ channel in inside-out patch” value [11] was “channel inhibition” and the “effect on recombinant KATP channels” value [11] was “inhibited”. For the same compound, the “KATP channel activity remaining, % of the control value” ([11]; isolated patches, 0.25 mM tolbutamide, n=3) was 40.8±8.5%, the “effect on cytosolic Ca2+ ([Ca2+]i)” value [1] was “no elevation of [Ca^2+]i” and the “Δ[Ca2+]i, rise in the cytosolic concentration” value [2] was 158 ± 24 nM. For the same compound, the “effect on cytosolic Ca2+ ([Ca2+]i)” value [2] was “raise [Ca^2+]i”, the insulin release [3] was “fail to release insulin” and the insulin secretion [4] was “regulated insulin secretion”.
With `Nc1ncnc2c1ncn2[C@@H]1O[C@H](COP(=O)(O)OP(=O)(O)O)[C@@H](O)[C@H]1O` [ADP] the “effect of nucleotides on recombinant KATP channels” value ([11]; NISK β-cells, inside-out patch) was “activated; also recorded: reversible recovery from closure”.
With `CN[C@@H]1[C@@H](O)[C@@H](O[C@@H]2[C@@H](O)[C@H](O[C@H]3O[C@H]([C@@H](C)O)[C@@H](O)[C@H](O)[C@H]3N)[C@@H](N)C[C@H]2N)OC[C@]1(C)O` [G418] the “time to toxic cell death” value [12] was ≤ 12 h.
For `CCC1(C2=NCCN2)Cc2ccccc2O1` (stereo not drawn) [efaroxan], the “effect on K+ channel in inside-out patch” value [11] was “channel inhibition”, the “KATP channel activity remaining, % of the immediate control value” ([11]; isolated patches, 0.2 mM efaroxan, n=3) was 8.5±5.6% and the “Δ[Ca2+]i, rise in the cytosolic concentration” value [2] was 195 ± 40 nM.
For `Nc1ncnc2c1ncn2[C@@H]1O[C@H](COP(=O)(O)OP(=O)(O)OP(=O)(O)O)[C@@H](O)[C@H]1O` [ATP], the “effect on K+ channel in inside-out patch” value [11] was “channel block”, the IC50 ([11]; NISK β-cells, inside-out patch, ATP 0.005-1 mM, n=4, read-out: 50% inhibition of KATP channels) was 5 to 10 µM and the “effect of nucleotides on recombinant KATP channels” value ([11]; NISK β-cells, inside-out patch) was “inhibition of channels”.
